Results: ChEMBL document CHEMBL3868595, “Plazomicin is effective in a non-human primate pneumonic plague model” (Bioorg Med Chem, 2016)

Experiments:
[1] = AUC (0 to 24 hrs) in African green monkey blood at 35 mg/kg administered as iv infusion twice daily for 7 consecutive days measured on day 1 by LC-MS/MS analysis; format: ADME, organism-based; set-up: dose 35 mg/kg, time < 24 hr, route intravenous; conditions: chlorocebus aethiops
[2] = tested on: African green monkey; test: Toxicity in African green monkey B6140 model infected with Yersinia pestis Colorado 92 assessed as serum creatinine level at 25 mg/kg, iv administered within 6 hrs post onset of sustained fever as 30 mins infusion for 10 days (reference value: 0.8 mg/dl); format: organism-based; conditions: chlorocebus sabaeus, in vivo
[3] = tested on: Yersinia pestis; test: (§1) Antibacterial activity against Yersinia pestis Colorado 92 infected in African green monkey C2149 model assessed as bacterial burden in spleen at 6.25 mg/kg, iv administered within 6 hrs post onset of sustained fever as 30 mins infusion for 5 days (reference value: 1.6 10^9CFU/g); format: functional, CO92
[4] = tested on: Yersinia pestis; test: Antibacterial activity against Yersinia pestis Colorado 92 infected in African green monkey B6469 model assessed as bacterial burden in lung at 25 mg/kg, iv administered within 6 hrs post onset of sustained fever as 30 mins infusion for 5 days (reference value: 7.7 10^8CFU/g); format: functional, CO92
[5] = tested on: African green monkey; test: Toxicity in African green monkey B6408 model infected with Yersinia pestis Colorado 92 assessed as serum alanine aminotransferase level at 25 mg/kg, iv administered within 6 hrs post onset of sustained fever as 30 mins infusion for 10 days (reference value: 109 IU/L); format: organism-based; conditions: chlorocebus sabaeus, in vivo
[6] = tested on: African green monkey; test: Toxicity in African green monkey 7972 model infected with Yersinia pestis Colorado 92 assessed as serum alanine aminotransferase level at 25 mg/kg, iv administered within 6 hrs post onset of sustained fever as 30 mins infusion for 10 days (reference value: 30 IU/L); format: organism-based; conditions: chlorocebus sabaeus, in vivo
[7] = Toxicity in African green monkey B5994 model infected with Yersinia pestis Colorado 92 assessed as total white blood cell count at 25 mg/kg, iv administered within 6 hrs post onset of sustained fever as 30 mins infusion for 10 days (reference value: 8 10^3/microL); format: organism-based; conditions: chlorocebus aethiops, in vivo
[8] = tested on: Yersinia pestis; test: Antibacterial activity against Yersinia pestis Colorado 92 infected in African green monkey B6988 model assessed as bacterial burden in lung at 6.25 mg/kg, iv administered within 6 hrs post onset of sustained fever as 30 mins infusion for 5 days (reference value: 7.7 10^8CFU/g); format: functional, CO92
[9] = tested on: Yersinia pestis; test: Antibacterial activity against Yersinia pestis Colorado 92 infected in African green monkey B6106 model assessed as bacterial burden in brain at 25 mg/kg, iv administered within 6 hrs post onset of sustained fever as 30 mins infusion for 5 days (reference value: 1.9 10^6CFU/g); format: functional, CO92
[10] = tested on: Yersinia pestis; test: Antibacterial activity against Yersinia pestis Colorado 92 infected in African green monkey B6861 model assessed as bacterial burden in brain at 6.25 mg/kg, iv administered within 6 hrs post onset of sustained fever as 30 mins infusion for 5 days (reference value: 1.9 10^6CFU/g); format: functional, CO92
[11] = tested on: Yersinia pestis; test: Antibacterial activity against Yersinia pestis Colorado 92 infected in African green monkey B6988 model assessed as bacterial burden in heart at 6.25 mg/kg, iv administered within 6 hrs post onset of sustained fever as 30 mins infusion for 5 days (reference value: 2.6 10^7CFU/g); format: functional, CO92
[12] = tested on: African green monkey; test: Toxicity in African green monkey B6428 model infected with Yersinia pestis Colorado 92 assessed as serum lactate dehydrogenase level at 25 mg/kg, iv administered within 6 hrs post onset of sustained fever as 30 mins infusion for 10 days (reference value: 238 IU/L); format: organism-based; conditions: chlorocebus sabaeus, in vivo
[13] = tested on: African green monkey; test: Toxicity in African green monkey B6127 model infected with Yersinia pestis Colorado 92 assessed as inappetence at 25 mg/kg, iv administered within 6 hrs post onset of sustained fever as 30 mins infusion for 10 days; format: organism-based; conditions: chlorocebus sabaeus, in vivo
[14] = tested on: African green monkey; test: Toxicity in African green monkey B6428 model infected with Yersinia pestis Colorado 92 assessed as serum creatinine level at 25 mg/kg, iv administered within 6 hrs post onset of sustained fever as 30 mins infusion for 10 days (reference value: 0.8 mg/dl); format: organism-based; conditions: chlorocebus sabaeus, in vivo
[15] = tested on: Yersinia pestis; test: as §1, with “B6783” for “C2149”, “tracheobronchial lymph nodes” for “spleen”, “12.5” for “6.25”, “7.7” for “1.6”; format: functional, CO92, Lymph node
[16] = tested on: African green monkey; test: Toxicity in African green monkey B6127 model infected with Yersinia pestis Colorado 92 assessed as tubule damage at 25 mg/kg, iv administered within 6 hrs post onset of sustained fever as 30 mins infusion for 10 days by hematoxylin staining based assay; format: organism-based; conditions: chlorocebus sabaeus, in vivo
[17] = tested on: Yersinia pestis; test: Antibacterial activity against Yersinia pestis Colorado 92 infected in African green monkey C2149 model assessed as bacterial burden in brain at 6.25 mg/kg, iv administered within 6 hrs post onset of sustained fever as 30 mins infusion for 5 days (reference value: 1.9 10^6CFU/g); format: functional, CO92
[18] = tested on: African green monkey; test: Toxicity in African green monkey B6291 model infected with Yersinia pestis Colorado 92 assessed as serum creatinine level at 25 mg/kg, iv administered within 6 hrs post onset of sustained fever as 30 mins infusion for 10 days (reference value: 0.6 mg/dl); format: organism-based; conditions: chlorocebus sabaeus, in vivo
[19] = tested on: African green monkey; test: Toxicity in African green monkey B6408 model infected with Yersinia pestis Colorado 92 assessed as serum creatinine level at 25 mg/kg, iv administered within 6 hrs post onset of sustained fever as 30 mins infusion for 10 days (reference value: 0.5 mg/dl); format: organism-based; conditions: chlorocebus sabaeus, in vivo
[20] = Toxicity in African green monkey 7643 model infected with Yersinia pestis Colorado 92 assessed as total white blood cell count at 25 mg/kg, iv administered within 6 hrs post onset of sustained fever as 30 mins infusion for 10 days (reference value: 6.1 10^3/microL); format: organism-based; conditions: chlorocebus aethiops, in vivo
[21] = Elimination half life in African green monkey blood at 35 mg/kg administered as iv infusion twice daily for 7 consecutive days measured on day 7 by LC-MS/MS analysis; format: ADME, organism-based; conditions: chlorocebus aethiops, read-out: beta t1/2 (converted)
[22] = tested on: Yersinia pestis; test: Antibacterial activity against Yersinia pestis Colorado 92 infected in African green monkey B6988 model assessed as bacterial burden in liver at 6.25 mg/kg, iv administered within 6 hrs post onset of sustained fever as 30 mins infusion for 5 days (reference value: 5.2 10^8CFU/g); format: functional, CO92
[23] = tested on: Yersinia pestis; test: Antibacterial activity against Yersinia pestis Colorado 92 infected in African green monkey B6889 model assessed as bacterial burden in heart at 6.25 mg/kg, iv administered within 6 hrs post onset of sustained fever as 30 mins infusion for 5 days (reference value: 2.6 10^7CFU/g); format: functional, CO92
[24] = tested on: Yersinia pestis; test: Antibacterial activity against Yersinia pestis Colorado 92 infected in African green monkey B6783 model assessed as bacterial burden in spleen at 12.5 mg/kg, iv administered within 6 hrs post onset of sustained fever as 30 mins infusion for 5 days (reference value: 1.6 10^9CFU/g); format: functional, CO92
[25] = tested on: Yersinia pestis; test: Antibacterial activity against Yersinia pestis Colorado 92 infected in African green monkey B6106 model assessed as bacterial burden in kidney at 25 mg/kg, iv administered within 6 hrs post onset of sustained fever as 30 mins infusion for 5 days (reference value: 7.1 10^7CFU/g); format: functional, CO92
[26] = tested on: Yersinia pestis; test: Antibacterial activity against Yersinia pestis Colorado 92 infected in African green monkey C2149 model assessed as bacterial burden in heart at 6.25 mg/kg, iv administered within 6 hrs post onset of sustained fever as 30 mins infusion for 5 days (reference value: 2.6 10^7CFU/g); format: functional, CO92

CN[C@@H]1[C@@H](O)[C@@H](O[C@@H]2[C@@H](O)[C@H](O[C@H]3OC(CNCCO)=CC[C@H]3N)[C@@H](N)C[C@H]2NC(=O)[C@@H](O)CCN)OC[C@]1(C)O [PLAZOMICIN]
AUC(0-t) at 24 h [1]: 306 µg·h/mL
Activity [2]: 0.7 mg/dL
Activity [3]: 30 CFU/g
Activity [4]: 21 CFU/g
Activity [5]: 94 IU/L
Activity [6]: 36 IU/L
Activity [7]: 4.5 ×10³ /uL
Activity [8]: 3.2 ×10⁸ CFU/g
Activity [9]: 6.4 ×10⁷ CFU/g
Activity [10]: 12 CFU/g
Activity [11]: 4.5 ×10⁶ CFU/g
Activity [12]: 299 IU/L
Activity [13]: Toxic
Activity [14]: 0.6 mg/dL
Activity [15]: 6.3 ×10⁹ CFU/g
Activity [16]: Toxic
Activity [17]: 46 CFU/g
Activity [18]: 0.5 mg/dL
Activity [19]: 0.4 mg/dL
Activity [20]: 5.7 ×10³ /uL
half-life [21]: 1.7 h
Activity [22]: 17 CFU/g
Activity [23]: 1 ×10⁶ CFU/g
Activity [24]: 10 CFU/g
Activity [25]: 17 CFU/g
Activity [26]: 9.7 ×10⁶ CFU/g
